Experimental data reported in the Kinase Knowledgebase extract (Sharma et al. 2016).

Molecular target: MAPK14 (human) (UniProt Q16539)
Assay: Inhibition of MAPK14 Kinase Activity

Sequence of MAPK14 (human) (Q16539 whole entry, looked up): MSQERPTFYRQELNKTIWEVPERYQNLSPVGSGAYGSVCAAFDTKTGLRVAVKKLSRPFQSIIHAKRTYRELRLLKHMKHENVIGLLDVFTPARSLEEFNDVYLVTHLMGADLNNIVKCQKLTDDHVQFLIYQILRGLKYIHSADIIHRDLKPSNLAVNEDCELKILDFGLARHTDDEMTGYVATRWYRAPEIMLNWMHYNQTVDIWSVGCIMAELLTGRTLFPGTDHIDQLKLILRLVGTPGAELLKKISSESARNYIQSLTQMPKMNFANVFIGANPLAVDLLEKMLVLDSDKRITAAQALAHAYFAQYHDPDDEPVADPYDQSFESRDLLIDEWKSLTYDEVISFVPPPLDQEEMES

Row | SMILES | IC50 [µM]
1 | O=C(Cc1ccccc1)Nc1sc(Cl)c(N2CC(Cc3ccc(F)cc3F)CCC2=O)c1Cl (stereo not drawn) | ≤ 10
2 | O=C1CCC(Cc2ccccc2)CN1c1c(Cl)ccnc1Cl (stereo not drawn) | ≤ 10
3 | Nc1ccc(Cl)c(N2CC(Oc3ccc(F)cc3F)CCC2=O)c1Cl (stereo not drawn) | ≤ 10
4 | O=C1CCC(Sc2ccc(Cl)cc2)CN1c1c(Cl)csc1Cl (stereo not drawn) | ≤ 10
5 | O=C1CCC(Cc2ccccc2)CN1c1c(Cl)cc([N+](=O)[O-])cc1Cl (stereo not drawn) | ≤ 10
6 | O=C1CCC(Cc2ccccc2)CN1c1ccccc1Cl (stereo not drawn) | ≤ 10
7 | COc1ccc(OC2CCC(=O)N(c3c(Cl)csc3Cl)C2)cc1 (stereo not drawn) | ≤ 10
8 | CC(C)(C)OC(=O)N[C@@H](COCc1ccccc1)C(=O)Nc1cc(Cl)c(N2CC(Cc3ccc(F)cc3F)CCC2=O)c(Cl)c1 (stereo partly drawn) | ≤ 10
9 | OCc1ccccc1CC1CCCN(c2c(Cl)cccc2Cl)C1 (stereo not drawn) | ≤ 10
10 | O=C(Cc1ccccc1)NC1CC(Cl)C(N2CC(Cc3ccc(F)cc3F)CCC2=O)C(Cl)C1 (stereo not drawn) | ≤ 10
11 | CN1CC(Cc2ccc(Cl)cc2Cl)CN(c2c(Cl)cccc2Cl)C1=O (stereo not drawn) | ≤ 10
12 | CC(=O)Nc1ccc(Cl)c(N2CC(Oc3ccc(F)cc3F)CCC2=O)c1Cl (stereo not drawn) | ≤ 10
13 | CC(=O)Nc1ccc(Cl)c(N2CC(Cc3ccc(F)cc3F)SCC2=O)c1Cl (stereo not drawn) | ≤ 10
14 | C[C@@H]1C[C@@H](Cc2ccc(F)cc2F)CN(c2c(Cl)cccc2Cl)C1=O | ≤ 10
15 | CNc1cc(Cl)c(N2CC(Oc3ccc(F)cc3F)CCC2=O)c(Cl)n1 (stereo not drawn) | ≤ 10
16 | O=C(O)CNc1ccc(Cl)c(N2CC(Cc3ccc(F)cc3F)CCC2=O)c1 (stereo not drawn) | ≤ 10
17 | O=C1CCC(Sc2ccc3ccccc3c2)CN1c1c(Cl)cccc1Cl (stereo not drawn) | ≤ 10
18 | Cc1ccccc1CC1CCC(=O)N(c2c(Cl)cccc2Cl)C1 (stereo not drawn) | ≤ 10
19 | Cc1ccc(OC2CCC(=O)N(c3c(Cl)ccnc3Cl)C2)c(C)c1 (stereo not drawn) | ≤ 10
20 | CN(C)C(=O)CNc1cc(Cl)c(N2CC(Cc3ccc(F)cc3F)CCC2=O)c(Cl)c1 (stereo not drawn) | ≤ 10
21 | CC(=O)Nc1ncc(Cl)c(N2CC(Cc3ccc(F)cc3F)CCC2=O)c1Cl (stereo not drawn) | ≤ 10
22 | O=C1CCC(Cc2cc(F)cc(F)c2)CN1C1C(Cl)CCCC1Cl (stereo not drawn) | ≤ 10
23 | O=C1SCC(Cc2ccc(F)cc2F)CN1c1c(Cl)cccc1Cl (stereo not drawn) | ≤ 10

Row | SMILES | IC50 [µM]
24 | CNc1ccc(Cl)c(N2CC(Cc3ccc(F)cc3F)CN(C)C2=O)c1Cl (stereo not drawn) | ≤ 10
25 | Cc1ccccc1SC1CCC(=O)N(c2c(Cl)cncc2Cl)C1 (stereo not drawn) | ≤ 10
26 | O=C1CCC(Sc2ccc(Cl)cc2)CN1c1c(Cl)cncc1Cl (stereo not drawn) | ≤ 10
27 | COc1ccc(CC2CCC(=O)N(c3c(Cl)cccc3Cl)C2)cc1 (stereo not drawn) | ≤ 10
28 | Cc1cc(CCCCC(=O)O)cc(C)c1N1CC(Cc2ccc(F)cc2F)CCC1=O (stereo not drawn) | ≤ 10
29 | Cc1ccc(OC2CCC(=O)N(c3c(Cl)ccnc3Cl)C2)cc1 (stereo not drawn) | ≤ 10
30 | O=C1CCC(Cc2cc(Cl)cc(Cl)c2)CN1c1c(Cl)cccc1Cl (stereo not drawn) | ≤ 10
31 | O=C1CCC(Oc2ccc(F)cc2)CN1c1c(Cl)ccnc1Cl (stereo not drawn) | ≤ 10
32 | O=C1CCC(Cc2ccccc2Cl)CN1C1C(Cl)CCCC1Cl (stereo not drawn) | ≤ 10
33 | Cc1cccc(C)c1N1CC(Cc2ccccc2Br)CCC1=O (stereo not drawn) | ≤ 10
34 | O=C1CCC(Cc2ccc(F)cc2)CN1c1c(Cl)cccc1Cl (stereo not drawn) | ≤ 10
35 | Cc1cccc(C)c1N1CC(/C=C/Cc2ccccc2)(CO)CCC1=O (stereo not drawn) | ≤ 10
36 | O=C1CCC(Oc2ccc(F)cc2F)CN1c1c(Cl)cccc1Cl (stereo not drawn) | ≤ 10
37 | Nc1cnc(Cl)c(N2CC(Oc3ccc(F)cc3F)CCC2=O)c1Cl (stereo not drawn) | ≤ 10
38 | O=C1CCC(Oc2ccc(Cl)cc2)CN1C1C(Cl)CCCC1Cl (stereo not drawn) | ≤ 10
39 | O=C1CCC(C(O)c2cccs2)CN1c1c(Cl)cc(Br)cc1Cl (stereo not drawn) | ≤ 10
40 | Cc1ccc(CC2CN(c3c(Cl)cccc3Cl)C(=O)CO2)c(C)c1 (stereo not drawn) | ≤ 10
41 | O=C1CCC(Cc2ccccc2F)CN1C1C(Cl)CCCC1Cl (stereo not drawn) | ≤ 10
42 | COc1ccccc1CC1CCC(=O)N(c2c(Cl)cccc2Cl)C1 (stereo not drawn) | ≤ 10
43 | Nc1cc(Cl)c(N2CC(Oc3ccc(F)cc3F)CCC2=O)c(Cl)c1 (stereo not drawn) | ≤ 10
44 | Cc1ccc(SC2CCC(=O)N(C3C(Cl)CCCC3Cl)C2)cc1 (stereo not drawn) | ≤ 10
45 | O=C1SCC(Cc2ccc(F)cc2)CN1c1c(Cl)cccc1Cl (stereo not drawn) | ≤ 10
46 | O=C1CCC(Sc2cc(F)cc(F)c2)CN1c1c(Cl)cccc1Cl (stereo not drawn) | ≤ 10

Row | SMILES | IC50 [µM]
47 | O=C1CCC(Oc2ccccc2F)CN1c1c(Cl)cccc1Cl (stereo not drawn) | ≤ 10
48 | CN1CC(Cc2ccccc2)CN(c2c(Cl)cccc2Cl)C1=O (stereo not drawn) | ≤ 10
49 | CN1CC(Cc2ccc(F)cc2F)CN(c2c(Cl)ccc(NC(=O)Cc3ccccc3)c2Cl)C1=O (stereo not drawn) | ≤ 10
50 | CS(=O)(=O)Nc1ccc(Cl)c(N2CC(Cc3ccc(F)cc3F)CCC2=O)c1 (stereo not drawn) | ≤ 10
51 | CNc1ccc(Cl)c(N2CC(Cc3ccc(F)cc3F)SCC2=O)c1Cl (stereo not drawn) | ≤ 10
52 | O=C1CCC(Oc2ccccc2Cl)CN1c1c(Cl)cncc1Cl (stereo not drawn) | ≤ 10
53 | O=C1COC(Cc2ccc(F)cc2F)CN1c1c(Cl)ccc(CO)c1Cl (stereo not drawn) | ≤ 10
54 | CC(=O)Nc1cnc(Cl)c(N2CC(Cc3ccc(F)cc3F)CCC2=O)c1Cl (stereo not drawn) | ≤ 10
55 | CC(=O)NC1CC(Cl)C(N2CC(Oc3ccc(F)cc3F)CCC2=O)C(Cl)C1 (stereo not drawn) | ≤ 10
56 | O=C1CCC(Cc2ccccc2)CN1C1C(Cl)CCCC1Cl (stereo not drawn) | ≤ 10
57 | O=C1CCC(Oc2ccc3ccccc3c2)CN1c1c(Cl)cncc1Cl (stereo not drawn) | ≤ 10
58 | CCN(CC)CC(=O)Nc1cc(Cl)c(N2CC(Cc3ccc(F)cc3F)CCC2=O)c(Cl)c1 (stereo not drawn) | ≤ 10
59 | O=C1CCC(Oc2cc(F)cc(F)c2)CN1C1C(Cl)CCCC1Cl (stereo not drawn) | ≤ 10
60 | O=C1CCC(Cc2ccc(F)cc2F)CN1c1c(Cl)cc(CO)nc1Cl (stereo not drawn) | ≤ 10
61 | O=C1CCC(Cc2ccc(F)cc2F)CN1c1c(Cl)cc(CO)cc1Cl (stereo not drawn) | ≤ 10
62 | Cc1ccc(CC2CCC(=O)N(C3C(Cl)CCCC3Cl)C2)cc1 (stereo not drawn) | ≤ 10
63 | CC(=O)NCCN(C(=O)OC(C)(C)C)c1cc(Cl)c(N2CC(Cc3ccc(F)cc3F)CCC2=O)c(Cl)c1 (stereo not drawn) | ≤ 10
64 | NC1CCC(Cl)C(N2CC(Sc3ccc(F)cc3F)CCC2=O)C1Cl (stereo not drawn) | ≤ 10
65 | O=C1CCC(Cc2ccc3ccccc3c2)CN1c1c(Cl)ccnc1Cl (stereo not drawn) | ≤ 10
66 | O=C1CCC(Oc2ccc(F)cc2F)CN1c1c(Cl)ccc(CO)c1Cl (stereo not drawn) | ≤ 10
67 | O=C1NCC(Cc2ccccc2Cl)CN1c1c(Cl)cccc1Cl (stereo not drawn) | ≤ 10
68 | Nc1ccc(Cl)c(N2CC(Sc3ccc(F)cc3F)CCC2=O)c1Cl (stereo not drawn) | ≤ 10
